Experimental data: ChEMBL document CHEMBL3045744, “Effect of pyriproxyfen, a juvenile hormone mimic, on egg hatch, nymph development, adult emergence and reproduction of the Asian citrus psyllid, Diaphorina citri Kuwayama” (2010)
Converted amounts (≈) assume the structure as drawn. The source made the active and inactive calls. The rule behind the calls is not given here.

Experiments:
Diaphorina citri [1] = assay: Ovicidal activity against Diaphorina citri in 2 to 3 months old citrus plant assessed as inhibition of old egg hatch at 64 ug/mL by residual contact bioassay; assay type: functional
Diaphorina citri [2] = assay: Ovicidal activity against Diaphorina citri in 2 to 3 months old citrus plant assessed as inhibition of old egg hatch at 128 ug/mL by leaf dip bioassay; assay type: functional; settings: foliar
Diaphorina citri [3] = assay: Ovicidal activity against Diaphorina citri in 2 to 3 months old citrus plant assessed as inhibition of old egg hatch at 4 to 8 ug/mL by leaf dip bioassay; assay type: functional, organism-based
Diaphorina citri [4] = assay: Ovicidal activity against Diaphorina citri in 2 to 3 months old citrus plant assessed as inhibition of egg hatch measured 0 to 48 hr prior egg laying by residual contact bioassay; assay type: functional
Diaphorina citri [5] = assay: Ovicidal activity against Diaphorina citri in 2 to 3 months old citrus plant assessed as inhibition of egg hatch measured 49 to 96 hr after egg laying by leaf dip bioassay; assay type: functional
Diaphorina citri [6] = assay: Ovicidal activity against Diaphorina citri in 2 to 3 months old citrus plant assessed as inhibition of egg hatch measured 0 to 48 hr after egg laying by leaf dip bioassay; assay type: functional
Diaphorina citri [7] = assay: Inhibition of reproduction in fifth-instar nymphs of Diaphorina citri in flush of citrus plants assessed as fecundity of egg at 100 ug/ml measured 0 to 3 days after emergence; assay type: functional, organism-based
Diaphorina citri [8] = assay: Inhibition of reproduction in fifth-instar nymphs of Diaphorina citri in flush of citrus plants assessed as viability of egg at 100 ug/ml applied topically; assay type: functional, organism-based
Diaphorina citri [9] = assay: Inhibition of reproduction in fifth-instar nymphs of Diaphorina citri in flush of citrus plants assessed as fecundity of egg at 100 ug/ml applied topically; assay type: functional, organism-based
Diaphorina citri [10] = assay: Insecticidal activity against Diaphorina citri assessed as mortality at 100 ug/ml applied topically; assay type: functional, organism-based
Diaphorina citri [11] = assay: Inhibition of reproduction in fifth-instar nymphs of Diaphorina citri in flush of citrus plants assessed as viability of egg at 64 ug/ml measured 10 to 12 days after emergence relative to control; assay type: functional, organism-based
Diaphorina citri [12] = assay: Inhibition of reproduction in fifth-instar nymphs of Diaphorina citri in flush of citrus plants assessed as viability of egg at 64 ug/ml measured 7 to 9 days after emergence relative to control; assay type: functional
Diaphorina citri [13] = assay: Inhibition of reproduction in fifth-instar nymphs of Diaphorina citri in flush of citrus plants assessed as viability of egg at 64 ug/ml measured 4 to 6 days after emergence relative to control; assay type: functional
Diaphorina citri [14] = assay: Inhibition of reproduction in fifth-instar nymphs of Diaphorina citri in flush of citrus plants assessed as viability of egg at 32 to 64 ug/ml measured 0 to 3 days after emergence relative to control; assay type: functional
Diaphorina citri [15] = assay: Inhibition of reproduction in fifth-instar nymphs of Diaphorina citri in flush of citrus plants assessed as fecundity of egg at 32 to 64 ug/ml measured 7 to 12 days after emergence relative to control; assay type: functional, organism-based
Diaphorina citri [16] = assay: Inhibition of reproduction in fifth-instar nymphs of Diaphorina citri in flush of citrus plants assessed as fecundity of egg at 32 to 64 ug/ml measured 4 to 6 days after emergence relative to control; assay type: functional; parameters: scale not given: the % may be the effect or the level left
Diaphorina citri [17] = assay: Inhibition of reproduction in fifth-instar nymphs of Diaphorina citri in flush of citrus plants assessed as fecundity of egg at 32 to 64 ug/ml measured 0 to 3 days after emergence relative to control; assay type: functional; parameters: scale not given: the % may be the effect or the level left
Diaphorina citri [18] = assay: Induction of morphological abnormalities of fourth and fifth-instar nymphs of Diaphorina citri in flush of citrus plants at 32 to 64 ug/ml after 48 hr; assay type: functional, organism-based
Diaphorina citri [19] = assay: Inhibition of reproduction in fifth-instar nymphs of Diaphorina citri in flush of citrus plants assessed as fecundity of egg at 100 ug/ml measured 4 to 6 days after emergence; assay type: functional, organism-based
Diaphorina citri [20] = assay: Inhibition of reproduction in fifth-instar nymphs of Diaphorina citri in flush of citrus plants assessed as viability of egg at 100 ug/ml measured 4 to 6 days after emergence; assay type: functional, organism-based
Diaphorina citri [21] = assay: Insecticidal activity against fourth-instar nymphs of Diaphorina citri nymph in flush of citrus plants assessed as mortality measured on fifth-instar stage after 48 hr; assay type: functional
Diaphorina citri [22] = assay: Insecticidal activity against fifth-instar nymphs of Diaphorina citri nymph in flush of citrus plants assessed as mortality measured on fifth-instar stage after 48 hr; assay type: functional
Diaphorina citri [23] = assay: Insecticidal activity against third- instar nymphs of Diaphorina citri nymph in flush of citrus plants assessed as mortality measured on fourth-instar stage after 48 hr; assay type: functional
Diaphorina citri [24] = assay: Insecticidal activity against second-instar nymphs of Diaphorina citri nymph in flush of citrus plants assessed as mortality measured on third-instar stage after 48 hr; assay type: functional
Diaphorina citri [25] = assay: Insecticidal activity against first-instar nymphs of Diaphorina citri nymph in flush of citrus plants assessed as mortality measured on second-instar stage after 48 hr; assay type: functional
Diaphorina citri [26] = assay: Inhibition of reproduction in fifth-instar nymphs of Diaphorina citri in flush of citrus plants assessed as viability of egg at 100 ug/ml measured 7 to 12 days after emergence; assay type: functional, organism-based
Diaphorina citri [27] = assay: Inhibition of reproduction in fifth-instar nymphs of Diaphorina citri in flush of citrus plants assessed as fecundity of egg at 100 ug/ml measured 7 to 12 days after emergence; assay type: functional, organism-based
Diaphorina citri [28] = assay: Inhibition of reproduction in fifth-instar nymphs of Diaphorina citri in flush of citrus plants assessed as viability of egg at 100 ug/ml measured 0 to 3 days after emergence; assay type: functional, organism-based

## CC(COc1ccc(Oc2ccccc2)cc1)Oc1ccccn1 (stereo unspecified) [PYRIPROXYFEN]
Diaphorina citri [1]
  inhibition at 64 µg/mL: 70%
Diaphorina citri [2]
  inhibition at 128 µg/mL: > 90%
Diaphorina citri [3]
  inhibition: Active
Diaphorina citri [4]
  LC50: 32.4 µg/mL (≈ 101 µM)
  inhibition: Dose-dependent effect
Diaphorina citri [5]
  inhibition: Dose-dependent effect
Diaphorina citri [5]; foliar
  LC50: 37 µg/mL (≈ 115 µM)
Diaphorina citri [6]
  inhibition: Dose-dependent effect
Diaphorina citri [6]; foliar
  LC50: 18.4 µg/mL (≈ 57.4 µM)
Diaphorina citri [7]
  Activity: inactive
Diaphorina citri [8]
  Activity: Active
Diaphorina citri [9]
  Activity: Active
Diaphorina citri [10]
  Activity: inactive
Diaphorina citri [11]
  Activity: inactive
Diaphorina citri [12]
  Activity: 83%
Diaphorina citri [13]
  Activity: 59%
Diaphorina citri [14]
  Activity: 69%
Diaphorina citri [15]
  Activity: inactive
Diaphorina citri [16]
  Activity: 64%
Diaphorina citri [17]
  Activity: 58%
Diaphorina citri [18]
  Activity: Active
Diaphorina citri [19]
  Activity: Active
Diaphorina citri [20]
  Activity: Active
Diaphorina citri [21]
  LC50: 44.3 µg/mL (≈ 138 µM)
Diaphorina citri [22]
  LC50: 51.3 µg/mL (≈ 160 µM)
Diaphorina citri [23]
  LC50: 25.2 µg/mL (≈ 78.6 µM)
Diaphorina citri [24]
  LC50: 21.6 µg/mL (≈ 67.1 µM)
Diaphorina citri [25]
  LC50: 17.6 µg/mL (≈ 54.8 µM)
Diaphorina citri [26]
  Activity: inactive
Diaphorina citri [27]
  Activity: inactive
Diaphorina citri [28]
  Activity: Active
